Drawing on ChEMBL document CHEMBL4609972, “Histone deacetylase 8 (HDAC8) and its inhibitors with selectivity to other isoforms: An overview” (Eur J Med Chem, 2019), this text covers IC50 for eight compounds.

For assay [1], the target named is T1, Protein deacetylase HDAC6 (Homo sapiens, UniProt Q9UBN7).
T1 sequence (Q9UBN7 whole entry): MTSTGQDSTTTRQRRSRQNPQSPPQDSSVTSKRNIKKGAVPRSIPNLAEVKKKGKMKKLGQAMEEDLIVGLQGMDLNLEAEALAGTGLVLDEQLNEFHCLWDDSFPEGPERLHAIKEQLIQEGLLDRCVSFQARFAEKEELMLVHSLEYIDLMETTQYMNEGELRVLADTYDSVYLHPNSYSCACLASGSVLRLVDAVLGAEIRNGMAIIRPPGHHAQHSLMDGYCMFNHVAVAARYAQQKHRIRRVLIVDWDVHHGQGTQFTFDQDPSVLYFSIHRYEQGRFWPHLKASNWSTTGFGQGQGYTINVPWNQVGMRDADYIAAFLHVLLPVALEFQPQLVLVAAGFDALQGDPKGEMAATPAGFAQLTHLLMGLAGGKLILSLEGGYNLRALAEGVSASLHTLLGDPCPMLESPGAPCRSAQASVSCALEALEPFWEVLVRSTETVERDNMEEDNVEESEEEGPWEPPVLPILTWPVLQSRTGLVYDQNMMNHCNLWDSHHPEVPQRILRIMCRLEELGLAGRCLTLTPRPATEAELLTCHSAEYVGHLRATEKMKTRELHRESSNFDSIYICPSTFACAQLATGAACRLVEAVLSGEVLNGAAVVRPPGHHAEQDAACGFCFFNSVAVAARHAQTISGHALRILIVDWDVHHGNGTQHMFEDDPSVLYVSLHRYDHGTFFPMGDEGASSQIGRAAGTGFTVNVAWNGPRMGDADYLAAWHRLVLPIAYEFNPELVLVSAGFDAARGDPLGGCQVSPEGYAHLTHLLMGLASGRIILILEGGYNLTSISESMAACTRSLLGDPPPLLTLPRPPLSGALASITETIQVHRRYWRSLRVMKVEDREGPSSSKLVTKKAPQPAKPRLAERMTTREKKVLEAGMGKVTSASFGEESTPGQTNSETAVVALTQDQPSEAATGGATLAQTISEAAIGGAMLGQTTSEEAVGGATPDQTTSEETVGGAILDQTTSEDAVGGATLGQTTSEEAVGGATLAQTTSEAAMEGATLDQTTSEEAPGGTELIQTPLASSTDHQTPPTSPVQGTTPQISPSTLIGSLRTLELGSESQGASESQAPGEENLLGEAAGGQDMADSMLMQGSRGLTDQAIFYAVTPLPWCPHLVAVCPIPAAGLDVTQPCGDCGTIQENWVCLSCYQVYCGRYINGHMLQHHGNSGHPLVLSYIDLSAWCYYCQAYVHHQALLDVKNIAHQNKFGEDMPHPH
Briefly: Inhibition of HDAC6 (unknown origin).

The target in another assay is T2, Histone deacetylase 8 (Homo sapiens, UniProt Q9BY41).
T2 sequence (Q9BY41 whole entry): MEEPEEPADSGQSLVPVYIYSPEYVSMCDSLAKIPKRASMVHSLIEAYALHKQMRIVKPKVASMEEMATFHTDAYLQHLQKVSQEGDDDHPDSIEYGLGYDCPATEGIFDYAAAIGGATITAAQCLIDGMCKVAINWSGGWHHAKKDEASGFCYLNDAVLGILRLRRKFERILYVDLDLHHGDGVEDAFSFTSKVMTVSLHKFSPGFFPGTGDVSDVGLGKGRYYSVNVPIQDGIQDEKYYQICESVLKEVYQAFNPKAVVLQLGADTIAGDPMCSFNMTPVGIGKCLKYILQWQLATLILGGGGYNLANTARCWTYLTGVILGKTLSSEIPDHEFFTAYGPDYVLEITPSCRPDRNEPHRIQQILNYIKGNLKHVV
Nature of the assay: Inhibition of HDAC8 (unknown origin).

The target of assay [2] is 72 kDa type IV collagenase (Homo sapiens, UniProt P08253). Nature of the assay: Inhibition of MMP2 (unknown origin).
Another assay has as its target Histone deacetylase. Nature of the assay: Inhibition of HDAC (unknown origin). The format is protein assay, Homo sapiens.

Square brackets hold non-standard residues; d marks the D form. Peptide text beside a SMILES is read from it. * marks the point of attachment. Asu = N[C@@H](CCCCCC(=O)O)C(=O)O; NHOH = ON*

72 kDa type IV collagenase, sequence (P08253 whole entry): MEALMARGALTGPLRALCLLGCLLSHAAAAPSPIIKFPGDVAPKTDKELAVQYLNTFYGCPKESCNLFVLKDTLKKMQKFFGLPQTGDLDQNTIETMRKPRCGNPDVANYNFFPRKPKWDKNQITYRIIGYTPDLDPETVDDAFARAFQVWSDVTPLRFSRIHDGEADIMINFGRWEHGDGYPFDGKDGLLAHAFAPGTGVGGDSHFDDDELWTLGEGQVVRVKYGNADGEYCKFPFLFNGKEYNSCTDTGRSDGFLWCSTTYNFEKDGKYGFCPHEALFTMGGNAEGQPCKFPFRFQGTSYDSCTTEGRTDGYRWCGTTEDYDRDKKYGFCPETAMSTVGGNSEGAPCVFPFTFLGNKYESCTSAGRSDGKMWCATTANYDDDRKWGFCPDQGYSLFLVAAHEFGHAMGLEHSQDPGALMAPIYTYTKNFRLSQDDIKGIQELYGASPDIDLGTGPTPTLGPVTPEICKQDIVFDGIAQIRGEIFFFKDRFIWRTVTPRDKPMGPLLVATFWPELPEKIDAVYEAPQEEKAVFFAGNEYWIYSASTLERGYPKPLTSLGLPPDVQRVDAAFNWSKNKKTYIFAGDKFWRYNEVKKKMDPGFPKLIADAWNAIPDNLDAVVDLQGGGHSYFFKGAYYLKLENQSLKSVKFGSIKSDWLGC

One may read the IC50 as the concentration needed to halve the response being measured. A high value points to lower potency. In assay [1], `O=C(NO)c1ccc(CN(CCO)C(=O)Cc2ccccc2)cc1` came in with an IC50 of 376 nM. Take `O=C(O)CC[C@@H](NC(=O)Cc1ccc(Br)cc1)C(=O)NCc1ccc([N+](=O)[O-])cc1`: the IC50 (against Histone deacetylase 8; in assay [2]) was 2890 nM throughout. With `O=C(CCCCCNC(=O)c1ccc(NC(=O)NC(C(=O)Nc2cccc(C(F)(F)F)c2)c2ccccc2)cc1)NO` (centres undefined), half-maximal inhibition on Histone deacetylase 8 (IC50) was put at 967 nM. Still for that read-out and setting: the figure for `O=C(CCCCCCC(=O)Nc1cc(C(F)(F)F)ccc1Cl)NO` is 119 nM; for `O=C(NO)c1cccc(-c2nc(CSc3ccccc3)n[nH]2)c1` it is 53 nM.

On to `O=C(NO)c1ccc(NCc2csc3ccccc23)cc1`, for which the IC50 in assay [1] stood at 1400 nM.

In assay [1], `CC(C)[C@@H](C#Cc1ccc(C(=O)NO)cc1)NC(=O)C1Cc2ccccc2O1` (some centres undefined) showed an IC50 of 417 nM. For the compound `CC[C@H](C)[C@@H]1NC(=O)[C@@H](Cc2ccc(OC)cc2)NC(=O)[C@H](CCCCCC(=O)NO)NC(=O)[C@H]2CCCN2C1=O` (cyclo([Asu](NHOH)[dY](Me)I[dP])), the IC50 on Histone deacetylase is reported as 3.32 nM.
